Test results reported in ChEMBL document CHEMBL5506053, “Explorations of Agonist Selectivity for the α9* nAChR with Novel Substituted Carbamoyl/Amido/Heteroaryl Dialkylpiperazinium Salts and Their Therapeutic Implications in Pain and Inflammation” (J Med Chem, 2024).
Active and inactive are the calls of the source.

Tests used:
[1] = target: Neuronal acetylcholine receptor subunit alpha-9 (Homo sapiens, UniProt Q9UGM1); test: (§1) Agonist activity at human alpha9 nAChR expressed as xenopus laevis oocytes assessed as increase in receptor desensitization by measuring fold change in maximum response (Imax) measured after 120 secs by two-electrode voltage-clamp electrophysiology method relative to acetylcholine; format: cell-based; details: Oocyte, filed as agonist, time 120.0 sec
[2] = target: Neuronal acetylcholine receptor; alpha9/alpha10 (Homo sapiens) (UniProt Q9UGM1+Q9GZZ6); test: Agonist activity at human alpha9alpha10 nAChR expressed as xenopus laevis oocytes assessed as increase in receptor desensitization by measuring fold change in maximum response (Imax) measured after 120 secs by two-electrode voltage-clamp electrophysiology method relative to acetylcholine; format: cell-based; details: Oocyte, filed as agonist, time 120.0 sec
[3] = target: T1, Neuronal acetylcholine receptor subunit alpha-7 (Homo sapiens, UniProt P36544); test: Partial agonist activity at human alpha7 nAChR expressed as xenopus laevis oocytes assessed as increase in receptor desensitization by measuring fold change in maximum response (Imax) measured after 120 secs by two-electrode voltage-clamp electrophysiology method relative to acetylcholine; format: cell-based; details: Oocyte, filed as partial agonist, time 120.0 sec
[4] = target: T1, Neuronal acetylcholine receptor subunit alpha-7; test: as §1, with “alpha7” for “alpha9”, “peak current” for “maximum”, “at 30 uM incubated for” for “(Imax) measured after”, “secs presence of PNU-120596” for “secs”; format: cell-based; details: Oocyte, filed as agonist, time 120.0 sec
[5] = target: T2, Neuronal acetylcholine receptor; alpha4/beta2 (Homo sapiens) (UniProt P17787+P43681); test: Agonist activity at human alpha4beta2 nAChR expressed in xenopus laevis oocytes at 30 uM measured after 120 secs by two-electrode voltage-clamp electrophysiology method relative to control; format: cell-based; details: Oocyte, time 120.0 sec
[6] = target: T3, Neuronal acetylcholine receptor; alpha3/beta4 (Homo sapiens) (UniProt P30926+P32297); test: Agonist activity at human alpha3beta4 nAChR expressed in xenopus laevis oocytes at 100 uM measured after 120 secs by two-electrode voltage-clamp electrophysiology method relative to control; format: cell-based; details: Oocyte, time 120.0 sec
[7] = system: Oocyte; test: Agonist activity at mouse muscle alpha1beta1epsilondelta nAChR expressed in xenopus laevis oocytes at 30 uM measured after 120 secs by two-electrode voltage-clamp electrophysiology method relative to control; format: cell-based; details: time 120.0 sec
[8] = target: T3, Neuronal acetylcholine receptor; alpha3/beta4 (Homo sapiens); test: (§2) Inhibition of acetylcholine induced response in human alpha3beta4 nAChR expressed in xenopus laevis oocytes assessed as fold change at 100 uM preincubated with 3 uM acetylcholine followed by compound administration for 12 sec and measured 181 sec post washout by two-electrode voltage-clamp electrophysiology method relative to acetylcholine alone; format: cell-based; details: Oocyte
[9] = target: T2, Neuronal acetylcholine receptor; alpha4/beta2 (Homo sapiens); test: as §2, with “alpha4beta2” for “alpha3beta4”, “30” for “100”; format: cell-based; details: Oocyte
[10] = system: Oocyte; test: as §2, with “mouse muscle alpha1beta1epsilondelta” for “human alpha3beta4”, “30” for “100”; format: cell-based
[11] = system: THP-1; test: Induction of IL-1beta release in LPS primed monocytic human THP-1 cells at 10 uM primed with LPS for 5 hrs followed by compound addition and further incubated for 40 mins by ELISA; format: functional, cell-based
[12] = system: THP-1; test: Cytotoxicity against monocytic human THP-1 cells assessed as effect on lactate dehydrogenase activity in supernatant; format: toxicity, cell-based
[13] = system: PBMC; test: Inhibition of ATP-mediated IL-1beta release in LPS primed BzATP induced human PBMC cells at 100 fM primed with LPS for 3 hrs followed by BzATP and compound addition for 30 mins by ELISA; format: functional, cell-based
[14] = system: PBMC; test: Inhibition of ATP-mediated IL-1beta release in LPS primed BzATP induced human PBMC cells at 100 uM primed with LPS for 3 hrs followed by BzATP and compound addition for 30 mins by ELISA; format: functional, cell-based
[15] = Metabolic stability in pooled BALB/c mouse plasma at 1 uM measured after 0 to 120 mins by UPLC-MS/MS analysis; format: ADME, cell-free; details: time 0-120 min
[16] = Plasma protein binding in human; format: ADME, cell-free
[17] = Apparent permeability across apical to basolateral side in human Caco-2 cells at pH 5 at 5 ug/ml measured after 2 hrs by UPLC-MS/MS analysis; format: ADME, cell-based; details: caco-2, pH 5, 2 h, dose 5 µg/ml
[18] = Apparent permeability across apical to basolateral side in human Caco-2 cells at pH 6.8 at 5 ug/ml measured after 2 hrs by UPLC-MS/MS analysis; format: ADME, cell-based; details: caco-2, pH 6.8, 2 h, dose 5 µg/ml
[19] = Apparent permeability across apical to basolateral side in human Caco-2 cells at pH 7.4 at 5 ug/ml measured after 2 hrs by UPLC-MS/MS analysis; format: ADME, cell-based; details: caco-2, pH 7.4, 2 h, dose 5 µg/ml
[20] = Apparent permeability across basolateral to apical side in human Caco-2 cells at pH 5 at 5 ug/ml measured after 2 hrs by UPLC-MS/MS analysis; format: ADME, cell-based; details: caco-2, pH 5, 2 h, dose 5 µg/ml
[21] = Apparent permeability across basolateral to apical side in human Caco-2 cells at pH 6.8 at 5 ug/ml measured after 2 hrs by UPLC-MS/MS analysis; format: ADME, cell-based; details: caco-2, pH 6.8, 2 h, dose 5 µg/ml
[22] = Apparent permeability across basolateral to apical side in human Caco-2 cells at pH 7.4 at 5 ug/ml measured after 2 hrs by UPLC-MS/MS analysis; format: ADME, cell-based; details: caco-2, pH 7.4, 2 h, dose 5 µg/ml
[23] = Metabolic stability in pooled BALB/c mouse plasma assessed as compound remaining at 1 uM measured after 0 to 120 mins by UPLC-MS/MS analysis; format: ADME, cell-free; details: time 0-120 min
[24] = system: Mus musculus; test: Antinociceptive activity in complete freund's adjuvant induced inflammatory pain in C57BL/6J mouse model assessed as increase in mechanical pain threshold at 20 mg/kg, ip pretreated with CFA for 3 days followed by compound treatment and measured after 1 to 72 hrs; format: functional, organism-based; details: time 1-72 hrs
[25] = system: Mus musculus; test: Antinociceptive activity in sham-treated C57BL/6J mouse model assessed as effect on von Frey response at 20 mg/kg, ip measured after 1 to 72 hrs; format: functional, organism-based; details: time 1-72 hrs
[26] = Toxicity in C57BL/6J mouse assessed as effect on locomotor activity at 20 mg/kg, ip measured after 6 hrs; details: in vivo
[27] = system: Mus musculus; test: Antiinflammatory activity in CFA-treated C57BL/6J mouse model assessed as reduction in paw edema at 20 mg/kg, ip measured after 6 hrs
[28] = target: T1, Neuronal acetylcholine receptor subunit alpha-7; test: Agonist activity at human alpha7 nAChR expressed as xenopus laevis oocytes assessed as increase in receptor desensitization by measuring fold change in maximum response (Imax) measured after 120 secs by two-electrode voltage-clamp electrophysiology method relative to acetylcholine; format: cell-based; details: Oocyte, filed as agonist, time 120.0 sec
[29] = system: Mus musculus; test: Antinociceptive activity in complete freund's adjuvant induced inflammatory pain in C57BL/6J mouse model assessed as increase in mechanical pain threshold at 10 mg/kg, ip pretreated with CFA for 3 days followed by compound treatment and measured after 1 to 24 hrs; format: functional, organism-based; details: time 1-24 hrs
[30] = system: Mus musculus; test: Antinociceptive activity in complete freund's adjuvant induced inflammatory pain in C57BL/6J mouse model assessed as increase in mechanical pain threshold at 2 mg/kg, ip pretreated with CFA for 3 days followed by compound treatment and measured after 6 to 24 hrs; format: functional, organism-based; details: time 6-24 hrs
[31] = system: Mus musculus; test: Antinociceptive activity in complete freund's adjuvant induced inflammatory pain in C57BL/6J mouse model assessed as increase in mechanical pain threshold at 10 mg/kg, ip pretreated with CFA for 3 days followed by compound treatment and measured after 5 days; format: functional, organism-based; details: time 5.0 day
[32] = system: Mus musculus; test: Antinociceptive activity in complete freund's adjuvant induced inflammatory pain in C57BL/6J mouse model assessed as increase in mechanical pain threshold at 10 mg/kg, ip pretreated with CFA for 3 days followed by compound treatment and measured after 72 hrs; format: functional, organism-based
[33] = system: Mus musculus; test: Antinociceptive activity in sham-treated C57BL/6J mouse model assessed as effect on von Frey response at 10 mg/kg, ip measured after 5 days; format: functional, organism-based; details: time 5.0 day
[34] = Toxicity in C57BL/6J mouse assessed as effect on locomotor activity at 10 mg/kg, ip measured after 6 hrs; format: organism-based; details: in vivo
[35] = system: Mus musculus; test: Antinociceptive activity in complete freund's adjuvant induced inflammatory pain in C57BL/6J mouse model harboring wild type alpha7 nAChR assessed as increase in mechanical pain threshold at 10 mg/kg, ip pretreated with CFA for 3 days followed by compound treatment and measured after 6 hrs; format: functional, organism-based
[36] = system: Mus musculus; test: Antinociceptive activity in complete freund's adjuvant induced inflammatory pain in alpha7 nAChR knockout C57BL/6J mouse model assessed as increase in mechanical pain threshold at 10 mg/kg, ip pretreated with CFA for 3 days followed by compound treatment and measured after 6 hrs; format: functional, organism-based
[37] = system: Mus musculus; test: Antiinflammatory activity in CFA-treated C57BL/6J mouse model assessed as reduction in paw edema at 10 mg/kg, ip measured after 6 hrs

T1 sequence (P36544 whole entry): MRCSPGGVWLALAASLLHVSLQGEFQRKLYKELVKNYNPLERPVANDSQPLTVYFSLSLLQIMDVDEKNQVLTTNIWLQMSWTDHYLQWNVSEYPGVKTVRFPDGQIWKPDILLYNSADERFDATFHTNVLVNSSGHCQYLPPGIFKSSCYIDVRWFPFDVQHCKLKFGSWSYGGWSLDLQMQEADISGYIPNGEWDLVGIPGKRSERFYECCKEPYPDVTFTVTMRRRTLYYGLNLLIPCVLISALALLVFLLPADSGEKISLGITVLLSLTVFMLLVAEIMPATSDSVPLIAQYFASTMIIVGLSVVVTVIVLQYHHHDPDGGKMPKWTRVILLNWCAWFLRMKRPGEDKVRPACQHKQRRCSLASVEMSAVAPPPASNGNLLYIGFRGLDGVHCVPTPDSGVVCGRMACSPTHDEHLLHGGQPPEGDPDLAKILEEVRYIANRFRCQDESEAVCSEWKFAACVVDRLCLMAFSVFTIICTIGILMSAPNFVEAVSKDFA
Chain of Neuronal acetylcholine receptor subunit alpha-9 (Q9UGM1 whole entry): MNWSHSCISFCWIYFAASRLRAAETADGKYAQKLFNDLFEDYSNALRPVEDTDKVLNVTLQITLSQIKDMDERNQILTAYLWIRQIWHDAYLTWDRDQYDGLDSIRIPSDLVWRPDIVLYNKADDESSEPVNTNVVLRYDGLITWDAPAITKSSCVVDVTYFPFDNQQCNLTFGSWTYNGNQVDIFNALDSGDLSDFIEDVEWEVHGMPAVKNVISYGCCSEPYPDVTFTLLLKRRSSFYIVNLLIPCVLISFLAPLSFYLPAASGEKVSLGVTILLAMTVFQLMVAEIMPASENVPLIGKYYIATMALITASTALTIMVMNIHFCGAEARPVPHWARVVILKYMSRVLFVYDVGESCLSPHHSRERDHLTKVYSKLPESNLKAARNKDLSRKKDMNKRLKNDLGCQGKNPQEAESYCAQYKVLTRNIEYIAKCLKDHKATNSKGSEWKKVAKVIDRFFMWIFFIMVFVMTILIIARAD

Question: For `CC[N+]1(C)CCN(c2ccc(C(=O)Nc3cccc(C)n3)cc2)CC1.[I-]`, which fold change (FC) [1] is on record?
Answer: 1.19

Question: What about the fold change (FC) [2] of the same compound?
Answer: 0.92

Question: What about the fold change (FC) [3] of the same compound?
Answer: 0.4

Question: And the fold change (FC) [4]?
Answer: 0.13

Question: What about the Activity [5] of the same compound?
Answer: < 1%

Question: And the Activity [6]?
Answer: < 1%

Question: What about the Activity [7] of the same compound?
Answer: < 1%

Question: What about the fold change (FC) [8] of the same compound?
Answer: 0.849

Question: And the fold change (FC) [9]?
Answer: 0.858

Question: And the fold change (FC) [10]?
Answer: 0.413

Question: What about the Activity [11] of the same compound?
Answer: inactive

Question: What about the Activity [12] of the same compound?
Answer: Non-Toxic

Question: What about the inhibition [13] of the same compound?
Answer: Active

Question: And the inhibition [14]?
Answer: inactive

Question: And the Stability [15]?
Answer: Stable

Question: What about the PPB [16] of the same compound?
Answer: 32%

Question: And the Papp [17]?
Answer: 1.9 10^-6 cm/s

Question: And the Papp [18]?
Answer: 2.2 10^-6 cm/s

Question: And the Papp [19]?
Answer: 2.2 10^-6 cm/s

Question: And the Papp [20]?
Answer: 1.9 10^-6 cm/s

Question: And the Papp [21]?
Answer: 2.6 10^-6 cm/s

Question: And the Papp [22]?
Answer: 2.9 10^-6 cm/s

Question: What about the Stability [23] of the same compound?
Answer: > 90%

Question: And the Activity [24]?
Answer: Active

Question: And the Activity [25]?
Answer: inactive

Question: And the Activity [26]?
Answer: Non-Toxic

Question: What about the Activity [27] of the same compound?
Answer: Active

Question: For `CC[N+]1(C)CCN(c2ccc(NC(=O)c3cccc(C)n3)cc2)CC1.[I-]`, which fold change (FC) [1] is on record?
Answer: 1.01

Question: And the fold change (FC) [2]?
Answer: 1.04

Question: And the fold change (FC) [28]?
Answer: 0.41

Question: And the fold change (FC) [4]?
Answer: 111

Question: And the Activity [5]?
Answer: < 1%

Question: What about the Activity [6] of the same compound?
Answer: < 1%

Question: And the Activity [7]?
Answer: < 1%

Question: What about the fold change (FC) [8] of the same compound?
Answer: 0.659

Question: What about the fold change (FC) [9] of the same compound?
Answer: 1.05

Question: And the fold change (FC) [10]?
Answer: 0.558

Question: And the Activity [11]?
Answer: inactive

Question: And the Activity [12]?
Answer: Non-Toxic

Question: What about the Stability [15] of the same compound?
Answer: Stable

Question: What about the PPB [16] of the same compound?
Answer: 54%

Question: What about the Papp [17] of the same compound?
Answer: 2.5 10^-6 cm/s

Question: And the Papp [18]?
Answer: 2.8 10^-6 cm/s

Question: And the Papp [19]?
Answer: 2.4 10^-6 cm/s

Question: And the Papp [20]?
Answer: 2.9 10^-6 cm/s

Question: What about the Papp [21] of the same compound?
Answer: 3 10^-6 cm/s

Question: What about the Papp [22] of the same compound?
Answer: 3.1 10^-6 cm/s

Question: And the Stability [23]?
Answer: > 90%

Question: And the Activity [29]?
Answer: Active

Question: What about the Activity [30] of the same compound?
Answer: Active

Question: And the Activity [31]?
Answer: Active

Question: And the Activity [32]?
Answer: inactive

Question: And the Activity [33]?
Answer: inactive

Question: What about the Activity [34] of the same compound?
Answer: Non-Toxic

Question: And the Activity [35]?
Answer: Active

Question: What about the Activity [36] of the same compound?
Answer: Active

Question: And the Activity [37]?
Answer: Active
